Source: ChEMBL document CHEMBL4699502, “Discovery of 1-(1H-indazol-4-yl)-3-((1-phenyl-1H-pyrazol-5-yl)methyl) ureas as potent and thermoneutral TRPV1 antagonists” (Bioorg Med Chem Lett, 2020)
Active and inactive are the calls of the source. The rule behind the calls is not given here.

Key:
[1] = molecular target: T1, Transient receptor potential cation channel subfamily V member 1 (Homo sapiens, UniProt Q8NER1); test: Agonist activity at human TRPV1 expressed in CHO-K1 cells assessed as induction of Ca2+ response treated with compound 6 mins prior to capsaicin addition and measured after overnight incubation by FLIPR assay; format: cell-based; details: filed as agonist
T1 sequence (Q8NER1 whole entry): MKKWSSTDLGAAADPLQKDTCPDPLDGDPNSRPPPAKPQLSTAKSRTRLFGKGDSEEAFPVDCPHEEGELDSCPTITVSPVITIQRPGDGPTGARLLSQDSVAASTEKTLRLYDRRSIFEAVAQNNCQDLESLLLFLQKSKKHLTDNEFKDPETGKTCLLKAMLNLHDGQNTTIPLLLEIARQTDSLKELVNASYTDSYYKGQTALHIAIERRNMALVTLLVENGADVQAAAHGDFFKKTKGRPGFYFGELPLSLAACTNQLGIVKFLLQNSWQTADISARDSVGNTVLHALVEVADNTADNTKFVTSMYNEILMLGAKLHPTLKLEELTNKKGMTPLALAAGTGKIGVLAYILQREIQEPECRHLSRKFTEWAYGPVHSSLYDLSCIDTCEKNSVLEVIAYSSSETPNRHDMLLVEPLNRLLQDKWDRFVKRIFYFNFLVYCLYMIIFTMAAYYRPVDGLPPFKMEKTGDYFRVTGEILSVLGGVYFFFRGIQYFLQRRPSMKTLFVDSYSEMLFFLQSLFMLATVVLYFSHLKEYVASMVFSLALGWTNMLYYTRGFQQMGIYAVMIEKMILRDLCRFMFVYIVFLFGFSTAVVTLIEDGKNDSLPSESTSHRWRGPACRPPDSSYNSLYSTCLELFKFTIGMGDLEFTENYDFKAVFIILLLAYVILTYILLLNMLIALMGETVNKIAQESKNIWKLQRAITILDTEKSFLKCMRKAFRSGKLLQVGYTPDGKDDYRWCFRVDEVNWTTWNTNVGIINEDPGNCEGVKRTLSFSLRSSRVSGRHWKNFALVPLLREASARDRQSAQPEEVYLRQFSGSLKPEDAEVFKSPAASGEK

[2] = molecular target: T1, Transient receptor potential cation channel subfamily V member 1; test: Antagonist activity at human TRPV1 expressed in CHO-K1 cells assessed as inhibition of capsaicin-induced Ca2+ response treated with compound 6 mins prior to capsaicin addition and measured after overnight incubation by FLIPR assay; format: cell-based
[3] = molecular target: T1, Transient receptor potential cation channel subfamily V member 1; test: Partial agonist activity at human TRPV1 expressed in CHO-K1 cells assessed as induction of Ca2+ response treated with compound 6 mins prior to capsaicin addition and measured after overnight incubation by FLIPR assay; format: cell-based; details: filed as partial agonist
[4] = In vivo antagonist activity at TRPV1 in mouse assessed as inhibition of capsaicin-induced hypothermia at 10 mg/kg, po; format: functional
[5] = Induction of hyperthermia in mouse assessed as effect on body temperature by measuring thermo-neutral activity at 10 mg/kg, po; format: organism-based; details: in vivo

SMILES	Ki [2]	also measured
CC(C)(C)c1cc(CNC(=O)Nc2ccc3[nH]ncc3c2)n(-c2cccc(Cl)c2)n1	–	Activity [1]: Active
O=C(NCc1cc(C(F)(F)F)nn1-c1cccc(Cl)c1)Nc1ccc2cn[nH]c2c1	–	inhibition ([2]; filed as antagonist): Active
Cn1ncc2cc(NC(=O)NCc3cc(C(C)(C)C)nn3-c3cccc(Cl)c3)ccc21	–	Activity [1]: Active
Cc1ccc(-n2nc(C(C)(C)C)cc2CNC(=O)Nc2cccc3[nH]ncc23)cc1C	–	Activity [3]: Active
Cn1ncc2c(NC(=O)NCc3cc(C(C)(C)C)nn3-c3cccc(Cl)c3)cccc21	0.4 nM	inhibition in vivo at 10 mg/kg [4]: 14%; Activity [5]: Non-Toxic
O=C(NCc1cc(C(F)(F)F)nn1-c1ccc(F)c(Cl)c1)Nc1cccc2[nH]ncc12	0.6 nM	–
Cn1ncc2ccc(NC(=O)NCc3cc(C(C)(C)C)nn3-c3cccc(Cl)c3)cc21	–	Activity [1]: Active
COc1ccc(-n2nc(C(C)(C)C)cc2CNC(=O)Nc2cccc3[nH]ncc23)cc1	62.9 nM	–
Cn1ncc2c(NC(=O)NCc3cc(C(F)(F)F)nn3-c3ccc(C(F)(F)F)cc3)cccc21	3.9 nM	–
CC(=O)n1ncc2c(NC(=O)NCc3cc(C(C)(C)C)nn3-c3cccc(Cl)c3)cccc21	29.5 nM	–
Cn1ncc2cc(NC(=O)NCc3cc(C(F)(F)F)nn3-c3cccc(Cl)c3)ccc21	61 nM	–
Cn1cc2c(NC(=O)NCc3cc(C(C)(C)C)nn3-c3cccc(Cl)c3)cccc2n1	–	Activity [1]: Active
Cn1ncc2c(NC(=O)NCc3cc(C(F)(F)F)nn3-c3ccc(F)c(Cl)c3)cccc21	1.9 nM	–
CC(C)(C)c1cc(CNC(=O)Nc2ccc3cn[nH]c3c2)n(-c2cccc(Cl)c2)n1	–	Activity [3]: Active
CC(C)(C)c1cc(CNC(=O)Nc2cccc3[nH]ncc23)n(-c2ccc(F)cc2)n1	2.2 nM	–
Cn1ncc2c(NC(=O)NCc3cc(C(F)(F)F)nn3-c3ccc(Cl)cc3)cccc21	2.7 nM	–
Cn1ncc2c(NC(=O)NCc3cc(C(F)(F)F)nn3-c3cccc(F)c3)cccc21	7 nM	–
Cn1cc2c(NC(=O)NCc3cc(C(F)(F)F)nn3-c3cccc(Cl)c3)cccc2n1	–	Activity [1]: Active
Cn1ncc2c(NC(=O)NCc3cc(C(C)(C)C)nn3-c3ccc(Cl)cc3)cccc21	9.5 nM	–
Cn1ncc2ccc(NC(=O)NCc3cc(C(F)(F)F)nn3-c3cccc(Cl)c3)cc21	–	Activity [3]: Active
O=C(NCc1cc(C(F)(F)F)nn1-c1ccc(Cl)cc1)Nc1cccc2[nH]ncc12	2.5 nM	–
Cn1ncc2c(NC(=O)NCc3cc(C(C)(C)C)nn3-c3ccc(C(F)(F)F)cc3)cccc21	12.4 nM	–
